This is an account of results in paper PMC11546339, “Conformational Plasticity Enhances the Brain Penetration of a Metabolically Stable, Dual-Functional Opioid-Peptide CycloAnt” (International Journal of Molecular Sciences, 2024).

What is called fraction remaining is the share of the starting amount still present when the sample was taken. Broadly, the Ki is a measure of affinity in units of concentration, obtained from inhibition or displacement. What is called inhibition is the percentage by which the read-out fell short of the control.

Molecules are shown by their SMILES. Where a SMILES comes first, the peptide text is derived from it. Bridges are numbered along the chain shown (N, C = ends). [ ]: non-standard residue; d: D form. 2Abz = Nc1ccccc1C(=O)O; Dap = NC[C@H](N)C(=O)O

The nature of one series: Stability in mouse serum. To be noted: 37 °C, read-out: percentage of CycloAnt remaining in mouse serum. Type of series: in vitro ADME. As to the method:
Proteolytic instability is a major hurdle limiting the development of peptide drug. As blood is a major source of proteases that degrade peptides, we evaluated the stability of CycloAnt in mouse serum. CycloAnt at a final concentration of 20 µM was incubated with mouse serum (SigmaAldrich) at 37 °C for 8 h. At 0, 15, 30, 60, 120, 240, and 480 min, the incubation was terminated by adding 2 volumes of ice-cold acetonitrile to precipitate the proteins in the sample. After centrifugation at 10,000 rpm, supernatant was collected. The processed sample was analyzed by liquid chromatography tandem mass spectrometry (LC-MS/MS). The percentage of CycloAnt remaining at each time point was calculated (Figure 1).
Stability in mouse serum. CycloAnt was dissolved in pH 7.2 phosphate buffer saline (PBS). A total of 175 µL of CycloAnt at a final concentration of 20 µM was mixed with 2.625 mL of 100% mouse serum (SigmaAldrich) and incubated at 37 °C. The mixture was analyzed over a time course of 8 h. At the time points of 0, 15, 30, 60, 120, 240, and 480 min, 150 µL of sample were withdrawal and the reaction was terminated with 300 μL of ice-cold acetonitrile containing internal standard (IS, Tyr-[D-Lys-Phe-Tyr-Gly] at 200 ng/mL). The mixture was centrifuged at 10,000 rpm at 4 °C for 10 min. […] The percentage of peptide remaining at each time point was calculated relative to 0 min. […]

The target in another series is T1, mouse DOR (Mus musculus, UniProt P32300).
T1 construct: expressed in transfected cells
T1 sequence (P32300 whole entry): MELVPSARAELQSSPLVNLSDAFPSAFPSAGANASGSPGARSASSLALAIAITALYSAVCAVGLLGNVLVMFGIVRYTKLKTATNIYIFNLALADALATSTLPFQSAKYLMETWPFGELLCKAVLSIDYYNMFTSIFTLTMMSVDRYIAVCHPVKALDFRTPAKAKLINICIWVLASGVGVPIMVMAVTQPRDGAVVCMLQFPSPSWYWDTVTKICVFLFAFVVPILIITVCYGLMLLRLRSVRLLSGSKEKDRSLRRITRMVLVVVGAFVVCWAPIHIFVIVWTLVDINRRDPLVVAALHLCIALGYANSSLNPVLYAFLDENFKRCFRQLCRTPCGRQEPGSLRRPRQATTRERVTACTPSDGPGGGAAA
Kind of series: Opioid receptor radioligand binding assay ([3H]diprenorphine), DOR. To be noted: CHO cell membranes, read-out: binding affinity (Ki) at DOR. The protocol:
(§1) CycloAnt is a lariat peptide that acts in vivo as a bifunctional MOR agonist and DOR antagonist, which was confirmed in our previous study using opioid receptor individually knock-out (OP KO) mice. In the current study, the binding affinities of CycloAnt to the three opioid receptors are determined using cell-based radioligand opioid receptor binding assays. […] At the KOR, CycloAnt at 1 μM inhibits 6% and at 10 μM inhibits 26% of [^3H]diprenorphine binding.
(§2) Opioid receptor radioligand binding assay. Membranes of CHO cells stably expressing the rat MOR, mouse DOR, or human KOR were used in the experiments. [^3H]diprenorphine (PerkinElmer, Waltham, MA, at the time of experiment calculated to have specific activity 35 Ci/mmol) was used as the radioligand for the MOR, DOR, and KOR. Competition inhibition of [^3H]diprenorphine (0.3–0.4 nM) binding to the MOR or DOR was conducted in 50 mM Tris-HCl buffer (pH 7.4) with an adequate number of cell membranes for each receptor and […] of CycloAnt. […] Binding reactions were terminated by rapid filtration under vacuum over GF/B filters presoaked in 0.1% polyethyleneimine, and the bound radioactivity was counted by liquid scintillation counting. […] Binding data were analyzed using GraphPad Prism software (version 10.2.3) and IC50 values (the concentration necessary to inhibit 50 percent of radioligand binding) and Ki values were calculated. […]

The next series concerns the target T2, rat MOR (Rattus norvegicus, UniProt P33535).
T2 construct: expressed in transfected cells
Kind of series: Opioid receptor radioligand binding assay ([3H]diprenorphine), MOR. To be noted: CHO cell membranes, read-out: binding affinity (Ki) at MOR. The protocol:
as §1, §2

The target in the next series is T3, human KOR (Homo sapiens, UniProt P41145).
T3 construct: expressed in transfected cells
T3 sequence (P41145 whole entry): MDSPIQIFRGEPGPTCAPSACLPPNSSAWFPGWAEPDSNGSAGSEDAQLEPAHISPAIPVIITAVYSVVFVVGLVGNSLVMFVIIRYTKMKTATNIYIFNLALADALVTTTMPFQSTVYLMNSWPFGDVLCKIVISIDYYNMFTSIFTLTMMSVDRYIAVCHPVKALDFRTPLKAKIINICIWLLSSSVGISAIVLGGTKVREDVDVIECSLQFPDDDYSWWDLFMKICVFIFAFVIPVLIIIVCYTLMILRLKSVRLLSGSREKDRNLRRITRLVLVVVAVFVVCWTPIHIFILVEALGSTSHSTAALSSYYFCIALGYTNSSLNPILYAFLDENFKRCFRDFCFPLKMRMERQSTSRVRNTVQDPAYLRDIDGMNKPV
Kind of series: Opioid receptor radioligand binding assay ([3H]diprenorphine), KOR. As to the method: as §1, §2

The nature of series [1]: Metabolism by UGTs in mouse liver microsomes (UDPGA). The format is in vitro ADME. To be noted: 3.07 μM, 0.5 mg/mL microsomes, alamethicin, 5 mM UDPGA, 37 °C, 60 min. The protocol:
Next, we examined the level of glucuronidation of CycloAnt in mouse liver microsomes using a method described elsewhere. CycloAnt at a final concentration of 3.07 μM was premixed with 0.5 mg/mL liver microsomes and a channel-forming peptide antibiotic alamethicin at 0 °C. After 15 min, the glucuronidation was initiated by adding the UDP-glucuronosyl transferases (UGTs) substrate uridine-5’-diphospho-α-D-glucuronic acid (UDPGA) to a final concentration of 5 mM and the mixture was incubated at 37 °C [19]. At 0, 5, 15, 30, and 60 min, the incubation mixture was withdrawn and processed. The supernatant was collected and analyzed by LC-MS/MS.
Metabolism by UDP-glucuronosyl transferases (UGTs) in liver microsomes. CycloAnt dissolved in pH 7.2 PBS was diluted to 8 μM. Six hundred microliters of diluted CycloAnt, 800 μL of 0.975 mg/mL mouse liver microsomes, and 14 μL of 0.5 mM alamethicin containing 10 mM MgCl2, were mixed and preincubated on ice for 15 min. The reaction was then initiated by adding 74 μL of 100 mM uridine-5’-diphospho-α-D-glucuronic acid (UDPGA) and incubated at 37 °C for 0, 5, 15, 30, and 60 min. […] The dried sample was reconstituted in 100 μL of 20% acetonitrile and stored at −20 °C before analyzed by LC-MS/MS on the next day. […]
In general terms: Liver microsomes are vesicles of endoplasmic reticulum, rich in cytochrome P450 enzymes.

T2 sequence (P33535 whole entry): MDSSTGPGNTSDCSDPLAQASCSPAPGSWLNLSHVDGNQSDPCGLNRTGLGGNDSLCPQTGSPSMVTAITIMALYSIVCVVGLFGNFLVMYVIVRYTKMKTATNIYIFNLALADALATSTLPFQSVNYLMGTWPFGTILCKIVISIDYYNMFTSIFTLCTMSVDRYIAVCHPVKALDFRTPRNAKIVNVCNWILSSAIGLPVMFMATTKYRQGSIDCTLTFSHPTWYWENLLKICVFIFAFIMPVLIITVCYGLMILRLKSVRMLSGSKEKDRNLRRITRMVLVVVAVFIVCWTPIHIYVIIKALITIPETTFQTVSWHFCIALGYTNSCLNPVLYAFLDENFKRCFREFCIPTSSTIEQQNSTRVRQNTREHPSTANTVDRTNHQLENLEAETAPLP

Consider `C[C@@H](O)[C@@H]1NC(=O)[C@H](CNC(=O)c2ccccc2N)NC(=O)[C@H](NC(=O)[C@@H](N)Cc2ccc(O)cc2)CCCCNC(=O)CNC1=O` [CycloAnt] (H-Y[dK][Dap](2Abz)TG; lactam 2-C), for which the share remaining at 8 h, 20 µM in the series “Stability in mouse serum” turned out to be 82.3%. Also, the Ki is 7.85 ± 0.77 nM at mouse DOR and 2.25 ± 0.44 nM at rat MOR. The same compound had an inhibition at 1 µM on human KOR (CycloAnt at 1 μM) of 6%. On human KOR (CycloAnt at 10 μM), this compound returned an inhibition at 10 µM of 26%. The “stability against glucuronidation in mouse liver microsomes (UGTs)” value in series [1] is reported as “stable against glucuronidation”.
